Assay: xn = mol fraction of the nth substance listed

CCCCCO + C1CCCCC1
Conditions | viscosity [mPa·s]
293.15 K, 100 kPa, x2 = 0.0815 | 3.56
293.15 K, 100 kPa, x2 = 0.1623 | 3.17
293.15 K, 100 kPa, x2 = 0.2416 | 2.81
293.15 K, 100 kPa, x2 = 0.3481 | 2.37
293.15 K, 100 kPa, x2 = 0.4401 | 2.06
293.15 K, 100 kPa, x2 = 0.5592 | 1.69
293.15 K, 100 kPa, x2 = 0.6501 | 1.46
293.15 K, 100 kPa, x2 = 0.7414 | 1.28
293.15 K, 100 kPa, x2 = 0.8502 | 1.1
293.15 K, 100 kPa, x2 = 0.9414 | 1.02
298.15 K, 101 kPa, x1 = 0.0229 | 0.889
298.15 K, 101 kPa, x1 = 0.0543 | 0.908
298.15 K, 101 kPa, x1 = 0.14 | 0.991
298.15 K, 101 kPa, x1 = 0.2319 | 1.064
298.15 K, 101 kPa, x1 = 0.3975 | 1.326
298.15 K, 101 kPa, x1 = 0.5045 | 1.548
298.15 K, 101 kPa, x1 = 0.6384 | 1.974
298.15 K, 101 kPa, x1 = 0.7129 | 2.264
298.15 K, 101 kPa, x1 = 0.8283 | 2.738
298.15 K, 101 kPa, x1 = 0.904 | 3.066
303.15 K, 100 kPa, x2 = 0.0815 | 2.7
303.15 K, 100 kPa, x2 = 0.1623 | 2.41
303.15 K, 100 kPa, x2 = 0.2416 | 2.15
303.15 K, 100 kPa, x2 = 0.3481 | 1.84
303.15 K, 100 kPa, x2 = 0.4401 | 1.61
303.15 K, 100 kPa, x2 = 0.5592 | 1.34
303.15 K, 100 kPa, x2 = 0.6501 | 1.18
303.15 K, 100 kPa, x2 = 0.7414 | 1.05
303.15 K, 100 kPa, x2 = 0.8502 | 0.92
303.15 K, 100 kPa, x2 = 0.9414 | 0.85
303.15 K, 101 kPa, x1 = 0.6491 | 1.531
303.15 K, 101.33 kPa, x1 = 0.0977 | 0.8877
303.15 K, 101.33 kPa, x1 = 0.2165 | 0.9922
303.15 K, 101.33 kPa, x1 = 0.3008 | 1.095
303.15 K, 101.33 kPa, x1 = 0.4012 | 1.222
303.15 K, 101.33 kPa, x1 = 0.5004 | 1.388
303.15 K, 101.33 kPa, x1 = 0.6025 | 1.586
303.15 K, 101.33 kPa, x1 = 0.7049 | 1.823
303.15 K, 101.33 kPa, x1 = 0.7922 | 2.076
303.15 K, 101.33 kPa, x1 = 0.9023 | 2.447
308.15 K, 101 kPa, x1 = 0.0229 | 0.757
308.15 K, 101 kPa, x1 = 0.0543 | 0.772
308.15 K, 101 kPa, x1 = 0.14 | 0.822
308.15 K, 101 kPa, x1 = 0.2319 | 0.894
308.15 K, 101 kPa, x1 = 0.3975 | 1.078
308.15 K, 101 kPa, x1 = 0.5045 | 1.248
308.15 K, 101 kPa, x1 = 0.6384 | 1.537
308.15 K, 101 kPa, x1 = 0.6491 | 1.452
308.15 K, 101 kPa, x1 = 0.7129 | 1.732
308.15 K, 101 kPa, x1 = 0.8283 | 2.09
308.15 K, 101 kPa, x1 = 0.904 | 2.335
313.15 K, 100 kPa, x2 = 0.0815 | 2.08
313.15 K, 100 kPa, x2 = 0.1623 | 1.88
313.15 K, 100 kPa, x2 = 0.2416 | 1.7
313.15 K, 100 kPa, x2 = 0.3481 | 1.47
313.15 K, 100 kPa, x2 = 0.4401 | 1.3
313.15 K, 100 kPa, x2 = 0.5592 | 1.11
313.15 K, 100 kPa, x2 = 0.6501 | 0.98
313.15 K, 100 kPa, x2 = 0.7414 | 0.88
313.15 K, 100 kPa, x2 = 0.8502 | 0.78
313.15 K, 100 kPa, x2 = 0.9414 | 0.72
313.15 K, 101 kPa, x1 = 0.6491 | 1.327
318.15 K, 101 kPa, x1 = 0.0229 | 0.649
318.15 K, 101 kPa, x1 = 0.0543 | 0.658
318.15 K, 101 kPa, x1 = 0.14 | 0.694
318.15 K, 101 kPa, x1 = 0.2319 | 0.758
318.15 K, 101 kPa, x1 = 0.3975 | 0.883
318.15 K, 101 kPa, x1 = 0.5045 | 1.01
318.15 K, 101 kPa, x1 = 0.6384 | 1.227
318.15 K, 101 kPa, x1 = 0.7129 | 1.364
318.15 K, 101 kPa, x1 = 0.8283 | 1.628
318.15 K, 101 kPa, x1 = 0.904 | 1.802
323.15 K, 100 kPa, x2 = 0.0815 | 1.64
323.15 K, 100 kPa, x2 = 0.1623 | 1.49
323.15 K, 100 kPa, x2 = 0.2416 | 1.36
323.15 K, 100 kPa, x2 = 0.3481 | 1.2
323.15 K, 100 kPa, x2 = 0.4401 | 1.08
323.15 K, 100 kPa, x2 = 0.5592 | 0.94
323.15 K, 100 kPa, x2 = 0.6501 | 0.85
323.15 K, 100 kPa, x2 = 0.7414 | 0.77
323.15 K, 100 kPa, x2 = 0.8502 | 0.69
323.15 K, 100 kPa, x2 = 0.9414 | 0.63

C1CCC2CCCCC2C1 (centres undefined) + C1CCCCC1
298.15 K, 101 kPa
Conditions | viscosity [mPa·s]
x1 = 0.1473 | 1.061
x1 = 0.3151 | 1.26
x1 = 0.5054 | 1.48
x1 = 0.7334 | 1.77

CCCCC(C)=O + CCCCOC(C)=O
298.15 K, 101.33 kPa
Conditions | viscosity [mPa·s]
x2 = 0.1073 | 0.595
x2 = 0.1861 | 0.601
x2 = 0.3117 | 0.611
x2 = 0.4115 | 0.62
x2 = 0.5224 | 0.63
x2 = 0.6318 | 0.64
x2 = 0.7471 | 0.649
x2 = 0.8669 | 0.663

c1ccccc1 + CCCCCCCCCC
Conditions | viscosity [mPa·s]
298 K, 101 kPa, x1 = 0.5 | 0.6712
298.15 K, 101.33 kPa, x2 = 0.03584 | 0.6003
298.15 K, 101.33 kPa, x2 = 0.1004 | 0.5986
298.15 K, 101.33 kPa, x2 = 0.2013 | 0.6012
298.15 K, 101.33 kPa, x2 = 0.2902 | 0.613
298.15 K, 101.33 kPa, x2 = 0.3988 | 0.6372
298.15 K, 101.33 kPa, x2 = 0.5 | 0.6648
298.15 K, 101.33 kPa, x2 = 0.5943 | 0.6949
298.15 K, 101.33 kPa, x2 = 0.7021 | 0.7313
298.15 K, 101.33 kPa, x2 = 0.8353 | 0.7784
298.15 K, 101.33 kPa, x2 = 0.9165 | 0.8085
318 K, 101 kPa, x1 = 0.5 | 0.5262

CCCCCCCCCCCCCC + CCCCCCCC
viscosity [mPa·s]
Conditions | x1 = 0.1504 | x1 = 0.3504 | x1 = 0.4999 | x1 = 0.6485 | x1 = 0.8475 | x2 = 0.367 | x2 = 0.635 | x2 = 0.839
293.15 K, 101.33 kPa | – | – | – | – | – | 1.501 | 1.003 | 0.753
303.16 K, 101.3 kPa | 0.6303 | 0.8589 | 1.056 | 1.276 | 1.612 | – | – | –
308.16 K, 101.3 kPa | 0.5925 | 0.8026 | 0.9789 | 1.176 | 1.476 | – | – | –

CCCCCCCCCCCCCC + CCCCCCCCCCO
100 kPa, x1 = 0.3338
Conditions | viscosity [mPa·s]
298.2 K | 5.36
308.2 K | 3.89
318.2 K | 2.92

C=CC(C)(O)CCC=C(C)C (centres undefined) + CCCCCC
298.15 K, 101.33 kPa
Conditions | viscosity [mPa·s]
x2 = 0.0412 | 3.82
x2 = 0.103 | 3.13
x2 = 0.2546 | 1.952
x2 = 0.3645 | 1.418
x2 = 0.4938 | 0.995
x2 = 0.5828 | 0.792
x2 = 0.6605 | 0.637
x2 = 0.7376 | 0.525
x2 = 0.8069 | 0.445
x2 = 0.8815 | 0.372
x2 = 0.9366 | 0.33
x2 = 0.9766 | 0.306

O=C(c1ccccc1)c1ccc2n1CCC2C(=O)[O-].[NH3+]C(CO)(CO)CO (centres undefined) + O
viscosity [mPa·s], 101 kPa
Conditions | 293.15 K | 298.15 K | 303.15 K | 308.15 K | 313.15 K
x1 = 0.0002 | 1.037 | 0.9251 | 0.8319 | 0.7538 | 0.688
x1 = 0.0007 | 1.071 | 0.9598 | 0.8666 | 0.7882 | 0.723
x1 = 0.001 | 1.105 | 0.9936 | 0.9005 | 0.822 | 0.7569
